# Test results reported in patent US11142527B2, “Dihydropyrimidine compounds and uses thereof in medicine” (SUNSHINE LAKE PHARMA CO., LTD., priority 2017, dated 2021).
# Tested on: HBV
# Test: Test of anti HBV activity in vitro (viral DNA by qPCR)
# Type: cell-based
# Settings: Hepatitis B virus; HepG2.2.15 cells, viral DNA in cell culture supernatant by qPCR; read-out: EC50 values of the compound of the invention on viral replication
# Experimental: Test 1: Test Method of Calculating Anti HBV EC50
# HBV Cell Line and Culture Conditions
# HepG2.2.15 (SELLS, PNAS, 1987 and SELLS, JV, 1988) chromosomes have an integrated complete HBV genome, and stably express viral RNA and viral protein. HepG2.2.15 cells can secrete mature HBV particles, HBsAg and HBeAg, to medium. HepG2.2.15 cells were cultured in DMEM containing 10% fetal bovine serum, 100 U/mL penicillin, 100 U/mL streptomycin, 1% non essential amino acid, 1 mM sodium pyruvate and 300 μg/mL G418.
# Viral particles DNA secreted from HepG2.2.15 cells can be quantified by qPCR, and the effect of the compound on viral replication can be detected.
# Test of Anti HBV Activity In Vitro
# 8000 HepG 2.2.15 cells per well were seeded into a 96-well plate, the plate was cultured at 37° C. and 5% CO2 for 3 days till the cells grew to full wells. Old liquid medium can be removed and replaced with new medium (200 μL) on day 0.
# Formulating the compound and treating the cells in the experiment of anti virus: the compound was dissolved in DMSO to a concentration of 30 mM, and then the compound solution was diluted with DMSO to a concentration of 800 μM, and then eight dilutions at 4 fold were performed, the highest concentration is 800 μM. The serial diluted compound was added to the above plate at 1 μL per well, the highest final concentration in the experiment is 4 μM (200 fold dilution). TDF (tenofovir dipiroxil fumarate, Selleck, Cat S1400) has a highest concentration of 4 μM as a positive control. 1 μL of DMSO was added in to the […] at a final concentration of 0.5%, TDF was added in to the […] at a final concentration of 1 μM.
# Detection of Viral Genomic DNA by aPCR
# Primer: HBV-For-202, […]; HBV-Rev-315, […]. Copies of virus can be calculated using a standard curve plotted by using plasmid containing HBV genome and using SYBR Premix Ex Taq II—Takara DRR081S kit and 1 μL cell culture supernatant as a template. EC50 values of the compound on viral replication were calculated by a four parametric nonlinear regression model using Graphpad Prism 5 software to manage concentration—viral copy number.
row,SMILES,EC50 [nM]
1,"COC(=O)C1=C(CN2CCN3C(=O)N(c4ccc(N5CCOC(CC(=O)O)C5)cc4)C[C@@H]3C2)NC(c2nccs2)=N[C@H]1c1ccc(F)cc1Cl (stereo partly drawn) [Example 76, 2-(4-(4-((S)-7-(((R)-6-(2-chloro-4-fluorophenyl)-5-(methoxycarbonyl)-2-(thiazol-2-yl)-3,6-dihydropyrimidin-4-yl)methyl)-3-oxohexahydroimidazo[1,5-a]pyrazin-2(3H)-yl)phenyl)morpholin-2-yl)acetic acid]",5.4
2,"COC(=O)C1=C(CN2CCN3C(=O)N(c4ccc(Oc5ccc(C(=O)O)cc5)nc4)C[C@@H]3C2)NC(c2nccs2)=N[C@H]1c1ccc(F)cc1Cl [Example 7, 4-((5-((S)-7-(((R)-6-(2-chloro-4-fluorophenyl)-5-(methoxycarbonyl)-2-(thiazol-2-yl)-3,6-dihydropyrimidin-4-yl)methyl)-3-oxohexahydroimidazo[1,5-a]pyrazin-2(3H)-yl)pyridin-2-yl)oxy)benzoic acid]",8.78
3,"COC(=O)C1=C(CN2CCN3C(=O)N(c4nc(-c5cccc(CCC(=O)O)c5)cs4)C[C@@H]3C2)NC(c2nccs2)=N[C@H]1c1ccc(F)cc1Cl [Example 140, 3-(3-(2-((S)-7-(((R)-6-(2-chloro-4-fluorophenyl)-5-(methoxycarbonyl)-2-(thiazol-2-yl)-3,6-dihydropyrimidin-4-yl)methyl)-3-oxohexahydroimidazo[1,5-a]pyrazin-2(3H)-yl)thiazol-4-yl)phenyl)propanoic acid]",18.3
4,"COC(=O)C1=C(CN2CCN3C(=O)N(c4ccc(-c5ccc(C(C)(C)C(=O)O)cc5)cc4)C[C@@H]3C2)NC(c2nccs2)=N[C@H]1c1ccc(F)cc1Cl [Example 18, 2-(4′-((S)-7-(((R)-6-(2-chloro-4-fluorophenyl)-5-(methoxycarbonyl)-2-(thiazol-2-yl)-3,6-dihydropyrimidin-4-yl)methyl)-3-oxohexahydroimidazo[1,5-a]pyrazin-2(3H)-yl)-[1,1′-diphenyl]-4-yl)-2-methyl propionic acid]",13
5,"COC(=O)C1=C(CN2CCN3C(=O)N(CC#Cc4ccc(C(=O)O)cc4F)C[C@@H]3C2)NC(c2nccs2)=N[C@H]1c1ccc(F)cc1Cl [Example 4, 4-(3-((S)-7-(((R)-6-(2-chloro-4-fluorophenyl)-5-(methoxycarbonyl)-2-(thiazol-2-yl)-3,6-dihydropyrimidin-4-yl)methyl)-3-oxohexahydroimidazo[1,5-a]pyrazin-2(3H)-yl)prop-1-yn-1-yl)-3-fluorobenzoic acid]",19.8
6,"COC(=O)C1=C(CN2CCN3C(=O)N(CC#Cc4ccc(C(=O)O)cc4)C[C@@H]3C2)NC(c2nccs2)=N[C@H]1c1ccc(F)cc1Cl [Example 1, 4-(3-((S)-7-(((R)-6-(2-chloro-4-fluorophenyl)-5-(methoxycarbonyl)-2-(thiazol-2-yl)-3,6-dihydropyrimidin-4-yl)methyl)-3-oxohexahydroimidazo[1,5-a]pyrazin-2(3H)-yl)prop-1-yn-1-yl)benzoic acid]",8.45
7,"COC(=O)C1=C(CN2CCN3C(=O)N(Cc4ccc(-c5ccc(C(=O)O)cc5)cc4)C[C@@H]3C2)NC(c2nccs2)=N[C@H]1c1ccc(F)cc1Cl [Example 10, 4′-(((S)-7-(((R)-6-(2-chloro-4-fluorophenyl)-5-(methoxycarbonyl)-2-(thiazol-2-yl)-3,6-dihydroprimidin-4-yl)methyl)-3-oxohexahydroimidazo[1,5-a]pyrazin-2(3H)-yl)methyl)-[1, 1′-diphenyl]-4-carboxylic acid]",19.9
8,"COC(=O)C1=C(CN2CCN3C(=O)N(c4ccc(C5(C(=O)O)CC5)cc4)C[C@@H]3C2)NC(c2nccs2)=N[C@H]1c1ccc(F)cc1Cl [Example 27, 1-(4-((S)-7-(((R)-6-(2-chloro-4-fluorophenyl)-5-(methoxycarbonyl)-2-(thiazol-2-yl)-3,6-dihydropyrimidin-4-yl)methyl)-3-oxohexahydroimidazo[1,5-a]pyrazin-2(3H)-yl)phenyl)cyclopropane carboxylic acid]",10
9,"COC(=O)C1=C(CN2CCN3C(=O)N(c4ccc(Oc5ccc(C(=O)O)cc5)cc4)C[C@@H]3C2)NC(c2nccs2)=N[C@H]1c1ccc(F)cc1Cl [Example 6, 4-(4-((S)-7-(((R)-6-(2-chloro-4-fluorophenyl)-5-(methoxycarbonyl)-2-(thiazol-2-yl)-3,6-dihydropyrimidin-4-yl)methyl)-3-oxohexahydroimidazo[1,5-a]pyrazin-2(3H)-yl)phenoxy) benzoic acid]",14
10,"COC(=O)C1=C(CN2CCN3C(=O)N(c4ccc(-c5ccc(C(=O)O)cc5F)nc4)C[C@@H]3C2)NC(c2nccs2)=N[C@H]1c1ccc(F)cc1Cl [Example 124, 4-(5-((S)-7-(((R)-6-(2-chloro-4-fluorophenyl)-5-(methoxycarbonyl)-2-(thiazol-2-yl)-3,6-dihydropyrimidin-4-yl)methyl)-3-oxohexahydroimidazo[1,5-a]pyrazin-2(3H)-yl)pyridin-2-yl)-3-fluorobenzoic acid]",47.4
11,"COC(=O)C1=C(CN2CCN3C(=O)N(c4ccc(Oc5ccc(CCC(=O)O)cc5F)cc4F)C[C@@H]3C2)NC(c2nccs2)=N[C@H]1c1ccc(F)cc1Cl [Example 101, 3-(4-(4-((S)-7-(((R)-6-(2-chloro-4-fluorophenyl)-5-(methoxycarbonyl)-2-(thiazol-2-yl)-3,6-dihydropyrimidin-4-yl)methyl)-3-oxohexahydroimidazo[1,5-a]pyrazin-2(3H)-yl)-3-fluorophenoxy)-3-fluorophenyl)propanoic acid]",14.8
12,"COC(=O)C1=C(CN2CCN3C(=O)N(c4nc(-c5ccc(CC(=O)O)cc5)cs4)C[C@@H]3C2)NC(c2nccs2)=N[C@H]1c1ccc(F)cc1Cl [Example 134, 2-(4-(2-((S)-7-(((R)-6-(2-chloro-4-fluorophenyl)-5-(methoxycarbonyl)-2-(thiazol-2-yl)-3,6-dihydropyrimidin-4-yl)methyl)-3-oxohexahydroimidazo[1,5-a]pyrazin-2(3H)-yl)thiazol-4-yl)phenyl)acetic acid]",4
13,"COC(=O)C1=C(CN2CCN3C(=O)N(c4ccc(N5CCC(C(=O)O)CC5)cc4)C[C@@H]3C2)NC(c2nccs2)=N[C@H]1c1ccc(F)cc1Cl [Example 21, 1-(4-((S)-7-(((R)-6-(2-chloro-4-fluorophenyl)-5-(methoxycarbonyl)-2-(thiazol-2-yl)-3,6-dihydropyrimidin-4-yl)methyl)-3-oxohexahydroimidazo[1,5-a]pyrazin-2(3H)-yl)phenyl) piperidine-4-carboxylic acid]",5
14,"COC(=O)C1=C(CN2CCN3C(=O)N(c4ccc(-c5ccc(C(=O)O)c(F)c5)cc4F)C[C@@H]3C2)NC(c2nccs2)=N[C@H]1c1ccc(F)cc1Cl [Example 121, 4′-((S)-7-(((R)-6-(2-chloro-4-fluorophenyl)-5-(methoxycarbonyl)-2-(thiazol-2-yl)-3,6-dihydropyrimidin-4-yl)methyl)-3-oxohexahydroimidazo[1,5-a]pyrazin-2(3H)-yl)-3,3′-difluoro-[1,1′-biphenyl]-4-carboxylic acid]",36.4
15,"COC(=O)C1=C(CN2CCN3C(=O)N(c4ccc(-c5cnc(C)[nH]5)cc4)C[C@@H]3C2)NC(c2nccs2)=N[C@H]1c1ccc(F)cc1Cl [Example 107, (R)-methyl 4-(2-chloro-4-fluorophenyl)-6-(((S)-2-(4-(2-methyl-1H-imidazol-5-yl)phenyl)-3-oxohexahydroimidazo[1,5-a]pyrazin-7(1H)-yl)methyl)-2-(thiazol-2-yl)-1,4-dihydropyrimidine-5-carboxylate]",6.5
16,"COC(=O)C1=C(CN2CCN3C(=O)N(C(C)(C)c4ccc(-c5ccc(C(=O)O)cc5)cc4)C[C@@H]3C2)NC(c2nccs2)=N[C@H]1c1ccc(F)cc1Cl (stereo in doubt) [Example 11, 4′-(2-((S)-7-(((R)-6-(2-chloro-4-fluorophenyl)-5-(methoxycarbonyl)-2-(thiazol-2-yl)-3,6-dihydropyrimidin-4-yl)methyl)-3-oxohexahydroimidazo[1,5-a]pyrazin-2(3H)-yl)prop-2-yl)-[1,1′-diphenyl]-4-carboxylic acid]",32.5
17,"COC(=O)C1=C(CN2CCN3C(=O)N(c4cc(F)cc(Oc5ccc(C(=O)O)cc5F)c4)C[C@@H]3C2)NC(c2nccs2)=N[C@H]1c1ccc(F)cc1Cl [Example 13, 4-(3-((S)-7-(((R)-6-(2-chloro-4-fluorophenyl)-5-(methoxycarbonyl)-2-(thiazol-2-yl)-3,6-dihydropyrimidin-4-yl)methyl)-3-oxohexahydroimidazo[1,5-a]pyrazin-2(3H)-yl)-5-fluorophenoxy)-3-fluorobenzoic acid]",22.1
